Patent publication US10538555B2, “Macrocyclic inhibitors of the PD-1/PD-L1 and CD80(B7-1)/PD-L1 protein/protein interactions” (BRISTOL-MYERS SQUIBB COMPANY, priority 2014, dated 2020)
Where a SMILES comes first, the peptide text is derived from it. Bridges are numbered along the chain shown (N, C = ends). [ ]: non-standard residue; d: D form. ξ: configuration not given here. Trp(1-CH2COOH) = N[C@@H](Cc1cn(CC(=O)O)c2ccccc12)C(=O)O; Hyp = O=C(O)[C@@H]1C[C@@H](O)CN1; Thr(3ξ) = CC(O)[C@H](N)C(=O)O; NMeNle = CCCC[C@H](NC)C(=O)O; NMeA = CN[C@@H](C)C(=O)O; Dab = NCC[C@H](N)C(=O)O; Dap = NC[C@H](N)C(=O)O

Molecular target: T1, Human PD-L1/PD-1 (Homo sapiens, UniProt Q9NZQ7)
T1 construct: TVMV protease cleavage site (C); made in house; host or cells: HEK293T cells
Experiment: HTRF Human PD-L1/PD-1 binding assay (PD-1-Ig/PD-L1-His)
Conditions: PD-L1-His 10 nM, PD-1-Ig 20 nM; class symbol; read-out: HTRF Human PD-L1/PD-1 Binding Assay IC50 Range
In short: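 Compound preincubated 15 min with PD-L1-His (10 nM final), then PD-1-Ig (20 nM final) added for 15 min in dPBS with 0.1% BSA and 0.05% Tween-20. Detection by Eu-cryptate anti-Ig (1 nM) and APC anti-His (20 nM) after 30 min; 665/620 nm HTRF ratio. Proteins expressed in HEK293T.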

T1 sequence (Q9NZQ7 with tags, fused parts or gaps): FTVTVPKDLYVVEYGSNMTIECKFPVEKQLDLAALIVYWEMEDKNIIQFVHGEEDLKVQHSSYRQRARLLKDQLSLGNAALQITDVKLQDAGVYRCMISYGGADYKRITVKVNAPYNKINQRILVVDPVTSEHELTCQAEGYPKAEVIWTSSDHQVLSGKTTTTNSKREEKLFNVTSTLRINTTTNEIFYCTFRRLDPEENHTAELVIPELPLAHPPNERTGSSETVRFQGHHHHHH

| IC50 | SMILES |
| --- | --- |
| 1 to 9.9 nM | CCCC[C@H]1C(=O)N(C)[C@@H](CCCC)C(=O)N[C@@H](CC(C)C)C(=O)N[C@H](C(=O)NCC(N)=O)CSCC(=O)N[C@@H](Cc2ccc(OC)cc2)C(=O)N(C)[C@@H](C)C(=O)N[C@@H](CC(N)=O)C(=O)N2CCC[C@H]2C(=O)N[C@@H](CO)C(=O)N[C@@H](CCC(N)=O)C(=O)N2C[C@H](O)C[C@H]2C(=O)N[C@@H](Cc2c[nH]c3ccccc23)C(=O)N[C@@H](CO)C(=O)N[C@@H](Cc2c[nH]c3ccccc23)C(=O)N1C [Example 7136] ({CH2CO}-Y(Me)[NMeA]NPSQ[Hyp]WSW[NMeNle][NMeNle]LCG-NH2; thioether N-14) |
| 1 to 9.9 nM | CCCC[C@H]1C(=O)N(C)[C@@H](CCCC)C(=O)N[C@@H](CO)C(=O)N[C@H](C(=O)NCC(N)=O)CSCC(=O)N[C@@H](Cc2ccc(OC)cc2)C(=O)N(C)[C@@H](C)C(=O)N[C@@H](CC(N)=O)C(=O)N2CCC[C@H]2C(=O)N[C@@H](Cc2c[nH]cn2)C(=O)N[C@@H](CCC(N)=O)C(=O)N2C[C@H](O)C[C@H]2C(=O)N[C@@H](Cc2c[nH]c3ccccc23)C(=O)N[C@@H](CO)C(=O)N[C@@H](Cc2c[nH]c3ccccc23)C(=O)N1C [Example 7137] ({CH2CO}-Y(Me)[NMeA]NPHQ[Hyp]WSW[NMeNle][NMeNle]SCG-NH2; thioether N-14) |
| 1 to 9.9 nM | CCCC[C@H]1C(=O)N(C)[C@@H](CCCC)C(=O)N[C@@H](CO)C(=O)N[C@H](C(=O)NCC(N)=O)CSCC(=O)N[C@@H](Cc2ccc(OC)cc2)C(=O)N(C)[C@@H](C)C(=O)N[C@@H](CC(N)=O)C(=O)N2CCC[C@H]2C(=O)N[C@@H](CO)C(=O)N[C@@H](CCC(N)=O)C(=O)N2C[C@H](O)C[C@H]2C(=O)N[C@@H](Cc2c[nH]c3ccccc23)C(=O)N[C@@H](CO)C(=O)N[C@@H](Cc2c[nH]c3ccccc23)C(=O)N1C [Example 7138] ({CH2CO}-Y(Me)[NMeA]NPSQ[Hyp]WSW[NMeNle][NMeNle]SCG-NH2; thioether N-14) |
| 1 to 9.9 nM | CCCC[C@H]1C(=O)N(C)[C@@H](CCCC)C(=O)N[C@@H](C(C)O)C(=O)N[C@H](C(=O)NCC(N)=O)CSCC(=O)N[C@@H](Cc2ccc(OC)cc2)C(=O)N(C)[C@@H](C)C(=O)N[C@@H](CC(N)=O)C(=O)N2CCC[C@H]2C(=O)N[C@@H](Cc2c[nH]cn2)C(=O)N[C@@H](CCC(N)=O)C(=O)N2C[C@H](O)C[C@H]2C(=O)N[C@@H](Cc2c[nH]c3ccccc23)C(=O)N[C@@H](CO)C(=O)N[C@@H](Cc2c[nH]c3ccccc23)C(=O)N1C (some centres unmarked) [Example 7139] ({CH2CO}-Y(Me)[NMeA]NPHQ[Hyp]WSW[NMeNle][NMeNle][Thr(3ξ)]CG-NH2; thioether N-14) |
| 1 to 9.9 nM | CCCC[C@H]1C(=O)N(C)[C@@H](CCCC)C(=O)N[C@@H](CCC(=O)O)C(=O)N[C@H](C(=O)NCC(N)=O)CSCC(=O)N[C@@H](Cc2ccc(OC)cc2)C(=O)N(C)[C@@H](C)C(=O)N[C@@H](CCN)C(=O)N2CCC[C@H]2C(=O)N[C@@H](CN)C(=O)N[C@@H](CCC(=O)O)C(=O)N2C[C@H](O)C[C@H]2C(=O)N[C@@H](Cc2c[nH]c3ccccc23)C(=O)N[C@@H](CCN)C(=O)N[C@@H](Cc2cn(CC(=O)O)c3ccccc23)C(=O)N1C [Example 7140] ({CH2CO}-Y(Me)[NMeA][Dab]P[Dap]E[Hyp]W[Dab][Trp(1-CH2COOH)][NMeNle][NMeNle]ECG-NH2; thioether N-14) |
| 1 to 9.9 nM | CCCC[C@H]1C(=O)N(C)[C@@H](CCCC)C(=O)N[C@@H](CC(C)C)C(=O)N[C@H](C(=O)NCC(N)=O)CSCC(=O)N[C@@H](Cc2ccc(OC)cc2)C(=O)N(C)[C@@H](C)C(=O)N[C@@H](CC(N)=O)C(=O)N2CCC[C@H]2C(=O)N[C@@H](Cc2c[nH]cn2)C(=O)N[C@@H](CCC(N)=O)C(=O)N2C[C@H](O)C[C@H]2C(=O)N[C@@H](Cc2c[nH]c3ccccc23)C(=O)N[C@@H](CO)C(=O)N[C@@H](Cc2cn(CC(=O)O)c3ccccc23)C(=O)N1C [Example 7141] ({CH2CO}-Y(Me)[NMeA]NPHQ[Hyp]WS[Trp(1-CH2COOH)][NMeNle][NMeNle]LCG-NH2; thioether N-14) |
| 1 to 9.9 nM | CCCC[C@H]1C(=O)N(C)[C@@H](CCCC)C(=O)N[C@@H](CC(C)C)C(=O)N[C@H](C(=O)NCC(N)=O)CSCC(=O)N[C@@H](Cc2ccc(OC)cc2)C(=O)N(C)[C@@H](C)C(=O)N[C@@H](CC(N)=O)C(=O)N2CCC[C@H]2C(=O)N[C@@H](CO)C(=O)N[C@@H](CCC(N)=O)C(=O)N2C[C@H](O)C[C@H]2C(=O)N[C@@H](Cc2c[nH]c3ccccc23)C(=O)N[C@@H](CO)C(=O)N[C@@H](Cc2cn(CC(=O)O)c3ccccc23)C(=O)N1C [Example 7142] ({CH2CO}-Y(Me)[NMeA]NPSQ[Hyp]WS[Trp(1-CH2COOH)][NMeNle][NMeNle]LCG-NH2; thioether N-14) |
| 1 to 9.9 nM | CCCC[C@H]1C(=O)N(C)[C@@H](CCCC)C(=O)N[C@@H](CO)C(=O)N[C@H](C(=O)NCC(N)=O)CSCC(=O)N[C@@H](Cc2ccc(OC)cc2)C(=O)N(C)[C@@H](C)C(=O)N[C@@H](CC(N)=O)C(=O)N2CCC[C@H]2C(=O)N[C@@H](Cc2c[nH]cn2)C(=O)N[C@@H](CCC(N)=O)C(=O)N2C[C@H](O)C[C@H]2C(=O)N[C@@H](Cc2c[nH]c3ccccc23)C(=O)N[C@@H](CO)C(=O)N[C@@H](Cc2cn(CC(=O)O)c3ccccc23)C(=O)N1C [Example 7143] ({CH2CO}-Y(Me)[NMeA]NPHQ[Hyp]WS[Trp(1-CH2COOH)][NMeNle][NMeNle]SCG-NH2; thioether N-14) |
| 1 to 9.9 nM | CCCC[C@H]1C(=O)N(C)[C@@H](CCCC)C(=O)N[C@@H](CO)C(=O)N[C@H](C(=O)NCC(N)=O)CSCC(=O)N[C@@H](Cc2ccc(OC)cc2)C(=O)N(C)[C@@H](C)C(=O)N[C@@H](CC(N)=O)C(=O)N2CCC[C@H]2C(=O)N[C@@H](CO)C(=O)N[C@@H](CCC(N)=O)C(=O)N2C[C@H](O)C[C@H]2C(=O)N[C@@H](Cc2c[nH]c3ccccc23)C(=O)N[C@@H](CO)C(=O)N[C@@H](Cc2cn(CC(=O)O)c3ccccc23)C(=O)N1C [Example 7144] ({CH2CO}-Y(Me)[NMeA]NPSQ[Hyp]WS[Trp(1-CH2COOH)][NMeNle][NMeNle]SCG-NH2; thioether N-14) |
| 1 to 9.9 nM | CCCC[C@H]1C(=O)N(C)[C@@H](CCCC)C(=O)N[C@@H](C(C)O)C(=O)N[C@H](C(=O)NCC(N)=O)CSCC(=O)N[C@@H](Cc2ccc(OC)cc2)C(=O)N(C)[C@@H](C)C(=O)N[C@@H](CC(N)=O)C(=O)N2CCC[C@H]2C(=O)N[C@@H](Cc2c[nH]cn2)C(=O)N[C@@H](CCC(N)=O)C(=O)N2C[C@H](O)C[C@H]2C(=O)N[C@@H](Cc2c[nH]c3ccccc23)C(=O)N[C@@H](CO)C(=O)N[C@@H](Cc2cn(CC(=O)O)c3ccccc23)C(=O)N1C (some centres unmarked) [Example 7145] ({CH2CO}-Y(Me)[NMeA]NPHQ[Hyp]WS[Trp(1-CH2COOH)][NMeNle][NMeNle][Thr(3ξ)]CG-NH2; thioether N-14) |
| 10 to 99.9 nM | CCCC[C@H]1C(=O)N(C)[C@@H](CCCC)C(=O)N[C@@H](CCC(=O)O)C(=O)N[C@H](C(=O)NCC(N)=O)CSCC(=O)N[C@@H](Cc2ccc(OC)cc2)C(=O)N(C)[C@@H](C)C(=O)N[C@@H](CC(N)=O)C(=O)N2CCC[C@H]2C(=O)N[C@@H](CN)C(=O)N[C@@H](CCCCN)C(=O)N2C[C@H](O)C[C@H]2C(=O)N[C@@H](Cc2c[nH]c3ccccc23)C(=O)N[C@@H](CCN)C(=O)N[C@@H](Cc2cn(CC(=O)O)c3ccccc23)C(=O)N1C [Example 7146] ({CH2CO}-Y(Me)[NMeA]NP[Dap]K[Hyp]W[Dab][Trp(1-CH2COOH)][NMeNle][NMeNle]ECG-NH2; thioether N-14) |
